A word on the IC50: it is the concentration that inhibits the measured activity by half.

Experiment [1] has as its target acetylcholinesterase (AChE) (Homo sapiens, UniProt P22303). Kind of experiment: Inhibitory activity on acetylcholinesterase (AChE), Ellman method. It counts as biochemical. Conditions: 25° C., pH 7.4, in the presence of 1% BSA, absorbance at 412 nm. The method, then:
(Inhibitory Activity on acetylcholinesterase (AChE))
Each test drug was dissolved in distilled water containing 0.1% BSA (pH 7.4). Hardly water-soluble test drugs were dissolved in dimethylsulfoxide followed by being diluted with distilled water containing 0.1% BSA (pH 7.4).
Measurements of AChE activity were carried out according to the method described by Ellman et al (Biochem Pharmacol 7, 88-95, 1961). A solution of 12 mM 5,5,-dithiobis-(2-nitrobenzoic acid) (50 μL; final concentration: 0.3 mM), a solution of AChE (2-4 U/mL; 50 μL) and a test drug solution (50 μL) were added, in this order, to 110 mM phosphate buffer (1.8 mL; final concentration: 100 mM; pH 7.4) and the mixture was incubated for a predetermined period (3 to 60 minutes) at 25° C. After incubation, a solution of 20 mM acetylthiocholin iodide (50 μL; final concentration: 0.5 mM) was added to the mixture. Immediately after stirring the mixture, absorbance at 412 nm of the reaction mixture was measured. In terms of change in the absorbance per unit time (z,900 E/min), the AChE-inhibitory activity of the test drug (IC50) was calculated. Concomitantly, the measurements of the present experiment were carried out in the presence of 1% BSA.
A general note: DTNB colorimetry detects thiols as they appear.

The target of experiment [2] is SK channel (specific binding of 125I-apamine to the membrane). Kind of experiment: Assay of 125I-apamine-binding inhibition (competitive binding to colon membrane fraction). Conditions: guinea pig colon membrane 10 μg/mL, 125I-apamin 10 pM, 4° C., 60 minutes; read-out: 125I-apamine-binding inhibitory activity (IC50; μM). The method, then:
(Assay of ^125I-Apamine-Binding Inhibition)
Male Hartley guinea pigs (Age: 4 weeks or more)
Each test drug was dissolved in a buffer (5 mM Tris-HCl, 5.4 mM KC1, 0.1% bovine serum albumin (BSA), pH 7.4; This buffer is hereinafter referred as buffer (3)). Hardly water-soluble test drugs were dissolved in dimethylsulfoxide followed by being diluted with buffer (3).
The experiments were carried out according to the method described by Hugues et al (Life Sciences 31, 437-443, 1982) and Catterall et al (Journal of Biochemistry 254, 11379-11387, 1979).
The colon was isolated from guinea pigs and mucosal cells were removed therefrom. The colon was homogenized together with a buffer solution (1)(40 mM Tris-HCl, 8% sucrose, pH 7.4) and the homogenate was centrifuged at 130,000 g for 60 minutes. The pellet was suspended in the buffer solution (1) and the suspension was layered on top of a discontinuous sucrose gradient composed of 33% sucrose and 40% sucrose. After centrifugation at 160,000 g for 90 minutes, the 8/33%-layer was collected and suspended in a buffer solution (2)(5 mM Tris-HCl, pH 7.4). The suspension was further centrifuged at 160,000 g for 60 minutes. The resultant pellet was suspended in buffer (3) at a final concentration of 500 μg of membrane protein per mL and used for binding assay (If necessary, this suspension was frozen and stored in a liquid nitrogen).
The membrane (10 μg/mL), ^125I-apamin (10 pM) and a test drug solution were added to the buffer (3) and the mixture was incubated at 4° C. for 60 minutes. After incubation, the mixture was filtered through cell-harvester and the radioactivity of ^125I-apamin retained by the filter was counted with a gamma-counter. The inhibitory activity (IC50) of the test drug on specific binding of ^125I-apamine to the membrane was calculated. The binding level of ^125I-apamine in the presence of large excess(100 nM) of apamine was defined as non-specific binding of ^125I-apamin.

In a further experiment the test system is guinea pig. Kind of experiment: Evaluation of evacuation-promoting activity (fecal pellets after clonidine). It counts as in vivo. Conditions: 15 min after clonidine 30 μg/kg i.p., minimum dose with more fecal pellets than control at one hour. The method, then: (Evaluation of Evacuation-Promoting Activity)
Male Hartley guinea pigs (Age: 4 to 5 weeks; n=6 to 10/group)
Each test drug was dissolved in distilled water. Hardly water-soluble test drugs were suspended in a 0.5% carboxymethyl cellulose solution. Dose of the test drug solution was 5 mL/kg.
Guinea pigs (2 animals/cage) were encaged and acclimatized for a few days prior to the examinations. Fifteen minutes after the administration of clonidine (30 μg/kg, i.p.), each test compound solution (5 mL/kg) was administered intraperitoneally or orally to the animals. One hour after the administration of the test compound, number of evacuated fecal pellets in each cage was measured and recorded. Effective dose of the test compound was determined as a minimum dose in which the number of evacuated fecal pellets was grater than that in control group (group of guinea pigs to which clonidine and vehicle of the test compound were administered d).

Chain of acetylcholinesterase (AChE) (P22303 32-614, species assumed): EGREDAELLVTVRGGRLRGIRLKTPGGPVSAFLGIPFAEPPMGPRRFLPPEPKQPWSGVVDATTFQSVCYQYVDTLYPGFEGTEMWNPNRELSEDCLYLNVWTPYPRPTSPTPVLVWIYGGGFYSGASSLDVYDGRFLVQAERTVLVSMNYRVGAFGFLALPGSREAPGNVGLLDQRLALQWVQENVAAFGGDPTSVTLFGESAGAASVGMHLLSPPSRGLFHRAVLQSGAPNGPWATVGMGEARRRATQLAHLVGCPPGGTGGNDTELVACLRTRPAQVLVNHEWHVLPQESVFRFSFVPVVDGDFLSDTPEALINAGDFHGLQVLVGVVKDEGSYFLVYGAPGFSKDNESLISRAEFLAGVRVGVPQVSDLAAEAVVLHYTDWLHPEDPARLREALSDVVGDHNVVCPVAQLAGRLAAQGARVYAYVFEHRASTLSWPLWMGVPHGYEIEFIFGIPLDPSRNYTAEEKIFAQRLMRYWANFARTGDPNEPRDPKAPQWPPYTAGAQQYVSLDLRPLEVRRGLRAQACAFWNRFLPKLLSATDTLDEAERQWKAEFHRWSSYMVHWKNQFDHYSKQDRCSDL

Consider `CCN1CCc2cc(OC)c(OC)cc2[C@@H]1[C@H]1C[C@H](C(=O)N2CCN(c3ncnc4c3cnn4Cc3ccncc3)CC2)CC[C@]12c1cc(OC)c(OC)cc1CCN2C(=O)CCNC` (racemic) [Example 165(2), (1R*,2R*(S),4R)-2′-[3-(methylamino)propionyl]-3′,4′-dihydro-6′,7′-dimethoxy-2-(2-ethyl-1,2,3,4-tetrahydro-6,7-dimethoxy-1-isoquinolyl)-4-[4-[1-(4-pyridylmethyl)-1H-pyrazolo[3,4-d]pyrimidin-4-yl]-1-piperazinyl]carbonyl-spiro[cyclohexane-1,1′(2′H)-isoquinoline]], for which the values for the IC50 in experiment [1] and in experiment [2] were 0.002 µM and 0.05 µM, respectively. Further, in the experiment on guinea pig, the “Evacuation-promoting activity in guinea pig (Effective dose: mg/kg i.p.)” value amounted to 0.01 mg/kg.
Consider `CCC(=O)OCOC(=O)N(C)CCC(=O)N1CCc2cc(OC)c(OC)cc2[C@]12CC[C@@H](C(=O)N1CCN(c3ncnc4c3cnn4Cc3ccncc3)CC1)C[C@@H]2C1c2cc(OC)c(OC)cc2CCN1CC` (relative stereo) [313 (1), (1R*,2R*(S*),4R*)-2′-[3-[N-(propionyloxymethyloxycarbonyl)-N-methylamino]propionyl]-3′,4′-dihydro-6′,7′-dimethoxy-2-(2-ethyl-1,2,3,4-tetrahydro-6,7-dimethoxy-1-isoquinolyl)-4-[4-[1-(4-pyridylmethyl)-1H-pyrazolo[3,4-d]pyrimidin-4-yl]-1-piperazinyl]carbonyl-spiro[cyclohexane-1,1′(2′H)-isoquinoline]], for which the “Evacuation-promoting activity in guine pig (Effective dose: mg/kg p.o.)” value in the experiment on guinea pig is 0.1 mg/kg.
On the same count and under the same terms, in the case of `CCC(=O)OCOC(=O)N(C)CCC(=O)N1CCc2cc(OC)c(OC)cc2[C@]12CC[C@@H](C(=O)N1CCN(c3ncnc4c3cnn4Cc3ccncc3)CC1)C[C@@H]2C1c2cc(OC)c(OC)cc2CCN1CC` (relative stereo) [313 (2), (1R*,2R*(S*),4R*)-2′-[3-[N-(propionyloxymethyloxycarbonyl)-N-methylamino]propionyl]-3′,4′-dihydro-6′,7′-dimethoxy-2-(2-ethyl-1,2,3,4-tetrahydro-6,7-dimethoxy-1-isoquinolyl)-4-[4-[1-(4-pyridylmethyl)-1H-pyrazolo[3,4-d]pyrimidin-4-yl]-1-piperazinyl]carbonyl-spiro[cyclohexane-1,1′(2′H)-isoquinoline]] it was 0.1 mg/kg.
Still for that read-out and setting: in the case of `CCN1CCc2cc(OC)c(OC)cc2C1[C@H]1C[C@H](C(=O)N2CCN(c3ncnc4c3nnn4C)CC2)CC[C@]12c1cc(OC)c(OC)cc1CCN2C(=O)CCN(C)C(=O)OCOC(=O)C(C)(C)C` (relative stereo) [315 (2), (1R*,2R*(S*),4R*)-2′-[3-[N-(pivaloyloxy-methyloxycarbonyl)-N-methylamino]propionyl]-3′,4′-dihydro-6′,7′-dimethoxy-2-(2-ethyl-1,2,3,4-tetrahydro-6,7-dimethoxy-1-isoquinolyl)-4-[4-[3-methyl-3H-1,2,3-triazolo[4,5-d]pyrimidin-7-yl]-1-piperazinyl]carbonyl-spiro[cyclohexane-1,1′(2′H)-isoquinoline]] it was 0.3 mg/kg.
Regarding `CCCn1ncc2c(N3CCN(C(=O)[C@@H]4CC[C@]5(c6cc(OC)c(OC)cc6CCN5C(=O)CCN(C)C(=O)c5ccccc5COC(=O)c5ccccc5)[C@@H](C5c6cc(OC)c(OC)cc6CCN5CC)C4)CC3)ncnc21` (relative stereo) [386 (2), (1R*,2R*(S*),4R*)-2′-[3-[N-(2-benzoyloxymethylbenzoyl)-N-methylamino]-propionyl]-3′,4′-dihydro-6′,7′-dimethoxy-2-(2-ethyl-1,2,3,4-tetrahydro-6,7-dimethoxy-1-isoquinolyl)-4-[4-[1-propyl-1H-pyrazolo[3,4-d]pyrimidin-4-yl]-1-piperazinyl]carbonyl-spiro[cyclohexane-1,1′(2′H)-isoquinoline]], the “Evacuation-promoting activity in guine pig (Effective dose: mg/kg p.o.)” value in the experiment with guinea pig is 1 mg/kg.
In the case of `COc1cc2c(cc1OC)C1(CCC(C(=O)N3CCN(c4ncnc5c4cnn5Cc4ccccn4)CC3)CC1)N(CCCN)CC2` (stereo not drawn) [282 (2)], in experiment [2], the IC50 came out at 0.02 µM.
`CNCCCCN1CCc2cc(OC)c(OC)cc2C12CCC(C(=O)N1CCN(c3ncnc4c3cnn4Cc3ccccc3Cl)CC1)CC2` (stereo not drawn) [295 (4), (1α,4β)-2′-[4-(methylamino)butyl]-3′,4′-dihydro-6′,7′-dimethoxy-4-[4-[1-(2-chlorophenylmethyl)-1H-pyrazolo[3,4-d]pyrimidin-4-yl]-1-piperazinyl]carbonyl-spiro[cyclohexane-1,1′(2′H)-isoquinoline]]: the IC50 in experiment [1] came to 0.02 µM.
`CCCn1ncc2c(N3CCN(C(=O)C4CCC5(c6cc(OC)c(OC)cc6CCN5C(=O)CCNC)C(C5c6cc(OC)c(OC)cc6CCN5CC)C4)CC3)ncnc21` (stereo not drawn) [Example 236(2)]: the IC50 in experiment [2] is 0.06 µM.
As for `CCN1CCc2cc(OC)c(OC)cc2C1C1CC(C(=O)N2CCN(c3ncnc4c3nnn4C)CC2)CCC12c1cc(OC)c(OC)cc1CCN2C(=O)CCNC` (stereo not drawn) [Example 241(2)], the IC50 in experiment [2] amounted to 0.01 µM. Also, in the experiment on guinea pig, the “Evacuation-promoting activity in guinea pig (Effective dose: mg/kg i.p.)” value is given as 0.03 mg/kg.

(Values after patent US20040106635A1, “Spiroisoquinoline compound, a method for preparing the same and an intermediate thereof” (priority 2001, published 2004).)
